# Experimental data: patent US20130022645A1, “PHARMACEUTICAL FORMULATIONS OF BISPHOSPHONATE WITH ENHANCED ORAL BIOAVAILABILITY” (DONG-A PHARM. CO., LTD., priority 2011, published 2013)
# “Also recorded” adds a separate entry of the source.
# Experiments:
# [1] = In vitro inhibitory activity of phytic acid and EDTA against complexation of bisphosphonate with calcium (residual risedronate in solution by HPLC); type: physicochemical; conditions: for Inhibition of calcium-risedronate complexation: Tables 2 to 4, FIGS. 1 to 3
# Procedure: Herein, in vitro tests in which after bisphosphonate and a chelating agent were simultaneously added to a solution containing a predetermined amount of calcium ions, correlation between time and residual bisphosphonate in the solution was determined were performed as explained in the following Reference Examples.
# Various 50 mL solutions containing 50 mg, 10 mg and 5 mg of calcium in combination with 50 mg and 100 mg of EDTA, or […] as a chelating agent were prepared and used respectively in Reference Examples 1 to 15.
# The mechanism in which a chelating agent facilitates the absorption of bisphosphonate can be explained as the degree to which the chelating inhibits bisphosphonate's activity of reacting with minerals (calcium, magnesium, etc.) in the gastrointestinal tract to form insoluble complexes. Thus, in vitro tests for assaying the inhibitory activity of phytic acid or EDTA against the complexation of bisphosphonate in calcium-containing solutions were conducted in Reference Test Example 1.
# In a container with a cap, 25 mL of each of the solutions prepared in Reference Example 1 to 15 was placed, followed by agitation at 100 rpm for 120 min in an agitation bath maintained at 37° C. Approximately 1 mL of each of the solutions was taken at time points (immediately after preparation, and 15, 30, 60, 90 and 120 min after agitation) and allowed to pass through 0.45 μm PVDF membrane filters to remove precipitates. Residual resedronate in the solutions was quantitatively analyzed by HPLC.
# [2] = system: intestinal mucosa; conditions: rabbits; cited from earlier work
SMILES,Inhibition of calcium-risedronate complexation [1],Inhibitory activity against complexation compared with EDTA ([1]; in vitro tests),"Amount of phytic acid relative to EDTA needed for the same inhibition of calcium-risedronate complexation ([1]; in vitro, Reference Examples 6 to 10)",Effect on intestinal mucosa [2]
"O=P(O)(O)O[C@H]1[C@H](OP(=O)(O)O)[C@@H](OP(=O)(O)O)[C@H](OP(=O)(O)O)[C@@H](OP(=O)(O)O)[C@H]1OP(=O)(O)O [phytic acid, inositol hexakisphosphate]",inhibit calcium-risedronate complexation in a dose-dependent manner,poorer in inhibitory activity against complexation than was EDTA,at least twice the amount of EDTA; also recorded: twice as large as that of EDTA,–
O=C(O)CN(CCN(CC(=O)O)CC(=O)O)CC(=O)O [EDTA],inhibit calcium-risedronate complexation in a dose-dependent manner,–,–,irritate the intestinal mucosa
